IC50 data for 33 compounds are collected here from patent US9376418B2, “Substituted pyridine spleen tyrosine kinase (SYK) inhibitors” (Merck Sharp & Dohme Corp., priority 2012, dated 2016).

The target in this test is T1, recombinant human GST-SYK (Homo sapiens, UniProt P43405).
T1 construct: purchased Carna Biosciences 08-176
The test is described as follows: Homogeneous Time-Resolved Fluorescence (HTRF) assay for the recombinant human Syk enzyme. The conditions noted are these: HTRF assay, recombinant human GST-SYK; IC50 given as class symbols; read-out: rhSYK Activity. In kind it is biochemical. Put shortly:
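HTRF read-out: Europium-anti-phosphotyrosine antibody (2 nM) plus SA-APC (70 nM) in EDTA-containing buffer quenched the reaction, and signal was read after 30 minutes. Kinase step used […], 250 nM biotinylated peptide, 25 μM ATP, 5 mM Mg, 45′ at room temperature.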
For orientation: TR-FRET usually uses a lanthanide donor and a delayed reading to cut background.
Take `CC1(C)CC(O)(c2ccc(-c3cc(Nc4nccc(C(F)(F)F)n4)cc(C(F)F)c3)cn2)CCC1C(=O)O` (single isomer, unassigned) [Example 9.13, (1S,4R or 1R,4S)-4-{5-[3-(difluoromethyl)-5-{[4-(trifluoromethyl)pyrimidin-2-yl]amino}phenyl]pyridin-2-yl}-4-hydroxy-2,2-dimethylcyclohexanecarboxylic acid]: the IC50 is < 100 nM.
For the compound `CCOC(=O)CCc1cncc(-c2cc(C)cc(Nc3nccc(C)n3)c2)c1` [Example 2.88, ethyl 3-(5-{3-methyl-5-[(4-methylpyrimidin-2-yl)amino]phenyl}pyridin-3-yl)propanoate], the IC50 is 100 to 1000 nM.
On to `CCOC(=O)CCc1cccc(-c2cc(C)cc(Nc3nccc(C)n3)c2)n1` [Example 2.32, ethyl 3-(6-{3-methyl-5-[(4-methylpyrimidin-2-yl)amino]phenyl}pyridin-2-yl)propanoate], for which the IC50 was 1000 to 10000 nM.
With `Cc1cc(Nc2nccc(C(F)(F)F)n2)cc(-c2ccnc(NC3(CO)CC3)c2)c1` [Example 15.56, (1-{[4-(3-methyl-5-{[4-(trifluoromethyl)pyrimidin-2-yl]amino}phenyl)pyridin-2-yl]amino}cyclopropyl)methanol], the IC50 was < 100 nM.
In the case of `Cc1cc(Nc2nccc(C(F)(F)F)n2)cc(-c2ccc(N3CCCCC3CC(=O)O)nc2)c1` (stereo not drawn) [Example 7.132, {1-[5-(3-methyl-5-{[4-(trifluoromethyl)pyrimidin-2-yl]amino}phenyl)pyridin-2-yl]piperidin-2-yl}acetic acid], the IC50 is < 100 nM.
As to `Cc1cc(Nc2nccc(C(F)(F)F)n2)cc(-c2ccc(N[C@H](CC(C)C)C(=O)O)nc2)c1` [Example 7.70, N-[5-(3-methyl-5-{[4-(trifluoromethyl)pyrimidin-2-yl]amino}phenyl)pyridin-2-yl]-D-leucine], the IC50 was < 100 nM.
Take `CC(=O)N1CCN(c2ccc(-c3cc(C)cc(Nc4nccc(C(F)(F)F)n4)c3)cn2)CC1` [Example 7.45, N-{3-[6-(4-acetylpiperazin-1-yl)pyridin-3-yl]-5-methylphenyl}-4-(trifluoromethyl)pyrimidin-2-amine]: the IC50 lay within 100 to 1000 nM.
To `Cc1cc(Nc2nccc(C(F)(F)F)n2)cc(-c2ccc(CCc3nnn[nH]3)nc2)c1` [Example 13.4, N-(3-Methyl-5-{6-[2-(1H-tetrazol-5-yl)ethyl]pyridin-3-yl}phenyl)-4-(trifluoromethyl)pyrimidin-2-amine] belongs < 100 nM; to `CCCCOC(=O)[C@H]1CC[C@H](C(C)(O)c2ccc(-c3cc(C)cc(Nc4nccc(C5CC5)n4)c3)cn2)CC1` (relative stereo) [Example 9.48, butyl trans-4-[1-(5-{3-[(4-cyclopropylpyrimidin-2-yl)amino]-5-methylphenyl}pyridin-2-yl)-1-hydroxyethyl]cyclohexanecarboxylate], 100 to 1000 nM; to `Cc1cc(Nc2ncc(Cl)c(C(F)(F)F)n2)cc(-c2cccnc2)c1` [Example 20.3], 100 to 1000 nM.
As for `Cc1cc(Nc2nccc(C(F)(F)F)n2)cc(-c2ccc(N[C@@H](C)C(=O)O)nc2)c1` [Example 7.86, N-[5-(3-methyl-5-{[4-(trifluoromethyl)pyrimidin-2-yl]amino}phenyl)pyridin-2-yl]-L-alanine], the figure is < 100 nM; as for `Cc1cc(Nc2nccc(C(F)(F)F)n2)cc(-c2cncc(C3(O)CCNCC3)c2)c1` [Example 9.7, 4-[5-(3-Methyl-5-{[4-(trifluoromethyl)pyrimidin-2-yl]amino}phenyl)pyridin-3-yl]piperidin-4-ol], < 100 nM; as for `Cc1cc(Nc2nccc(C(F)(F)F)n2)cc(-c2ccc(C#N)nc2)c1` [Example 2.46, 5-(3-methyl-5-{[4-(trifluoromethyl)pyrimidin-2-yl]amino}phenyl)pyridine-2-carbonitrile], < 100 nM.
`CNC(=O)C1CCCN1c1cc(-c2cc(C)cc(Nc3nccc(C(F)(F)F)n3)c2)ccn1` (racemic) [Example 15.81, N-methyl-1-[4-(3-methyl-5-{[4-(trifluoromethyl)pyrimidin-2-yl]amino}phenyl)pyridin-2-yl]prolinamide]: the IC50 lay within 100 to 1000 nM.
For the compound `Cc1cc(Nc2nccc(C(F)(F)F)n2)cc(-c2ccc(N(CCC#N)CC(=O)O)nc2)c1` [Example 7.75, N-(2-cyanoethyl)-N-[5-(3-methyl-5-{[4-(trifluoromethyl)pyrimidin-2-yl]amino}phenyl)pyridin-2-yl]glycine], the IC50 is < 100 nM.
`Cc1cc(Nc2nccc(C(F)(F)F)n2)cc(-c2ccc(N3CCC(C(N)=O)CC3)nc2)c1` [Example 7.32, 1-[5-(3-methyl-5-{[4-(trifluoromethyl)pyrimidin-2-yl]amino}phenyl)pyridin-2-yl]piperidine-4-carboxamide]: the IC50 was < 100 nM.
As for `CC(=O)c1cncc(-c2cc(C)cc(Nc3nccc(C(F)(F)F)n3)c2)c1` [Example 2.48, 1-[5-(3-methyl-5-{[4-(trifluoromethyl)pyrimidin-2-yl]amino}phenyl)pyridin-3-yl]ethanone], the figure is < 100 nM; as for `Cc1cc(Nc2nccc(C(F)(F)F)n2)cc(-c2ccc(CCC(=O)O)cn2)c1` [Example 2.30, 3-[6-(3-methyl-5-{[4-(trifluoromethyl)pyrimidin-2-yl]amino}phenyl)pyridin-3-yl]propanoic acid], < 100 nM.
For the compound `Cc1cc(Nc2nccc(C(F)(F)F)n2)cc(-c2ccc(NCCc3cnccn3)nc2)c1` [Example 7.18, N-(3-methyl-5-{6-[(2-pyrazin-2-ylethyl)amino]pyridin-3-yl}phenyl)-4-(trifluoromethyl)pyrimidin-2-amine], the IC50 was < 100 nM.
For `Cc1cc(Nc2nccc(C(F)(F)F)n2)cc(-c2ccc(N[C@H]3CC[C@H](C(=O)O)CC3)nc2)c1` [Example 7.143, trans-4-{[5-(3-methyl-5-{[4-(trifluoromethyl)pyrimidin-2-yl]amino}phenyl)pyridin-2-yl]amino}cyclohexanecarboxylic acid], the IC50 was < 100 nM.
With `Cc1cc(Nc2nccc(C(F)(F)F)n2)cc(-c2ccc(N3CCNC(=O)C3)nc2)c1` [Example 7.67, 4-[5-(3-methyl-5-{[4-(trifluoromethyl)pyrimidin-2-yl]amino}phenyl)pyridin-2-yl]piperazin-2-one], the IC50 was < 100 nM.
As to `Cc1cc(Nc2nccc(C(F)(F)F)n2)cc(-c2ccc(NCCCO)nc2)c1` [Example 7.113, 3-{[5-(3-methyl-5-{[4-(trifluoromethyl)pyrimidin-2-yl]amino}phenyl)pyridin-2-yl]amino}propan-1-ol], the IC50 was < 100 nM.
`CC(=O)Nc1cc(Nc2nccc(C(F)(F)F)n2)cc(-c2ccc(N3CCNC(=O)CC3)nc2)c1` [Example 7.4, N-(3-[6-(5-oxo-1,4-diazepan-1-yl)pyridin-3-yl]-5-{[4-(trifluoromethyl)pyrimidin-2-yl]amino}phenyl)acetamide]: the IC50 is < 100 nM.
For the compound `CCC(C)(C#N)Nc1ccc(-c2cc(C)cc(Nc3nccc(C(F)(F)F)n3)c2)cn1` (stereo not drawn) [Example 7.118, 2-methyl-2-{[5-(3-methyl-5-{[4-(trifluoromethyl)pyrimidin-2-yl]amino}phenyl)pyridin-2-yl]amino}butanenitrile], the IC50 is < 100 nM.
Turning to `Cc1cc(Nc2nccc(C(F)(F)F)n2)cc(-c2ccnc(N3CC(C)NC(C)C3)c2)c1` (stereo not drawn) [Example 15.71, N-{3-[2-(3,5-dimethylpiperazin-1-yl)pyridin-4-yl]-5-methylphenyl}-4-(trifluoromethyl)pyrimidin-2-amine], the IC50 is < 100 nM.
With `Cc1cc(Nc2ncc(Cl)c(C)n2)cc(-c2ccc(C(C)(O)C3CCC(C(=O)O)CC3)nc2)c1` (single isomer, unassigned) [Example 9.82, trans-4-[(1R or 1S)-1-(5-{3-[(5-chloro-4-methylpyrimidin-2-yl)amino]-5-methylphenyl}pyridin-2-yl)-1-hydroxyethyl]cyclohexanecarboxylic acid], the IC50 is < 100 nM.
As for `Cc1cc(Nc2nccc(C(F)(F)F)n2)cc(-c2ccc(C(=O)N3CC(=O)NC(=O)C3)nc2)c1` [Example 16.18, 4-{[5-(3-methyl-5-{[4-(trifluoromethyl)pyrimidin-2-yl]amino}phenyl)pyridin-2-yl]carbonyl}piperazine-2,6-dione], the IC50 was < 100 nM.
As for `Cc1cc(Nc2nccc(C(F)(F)F)n2)cc(-c2ccc(N[C@H](C(=O)O)[C@@H](C)O)nc2)c1` [Example 7.92, N-[5-(3-methyl-5-{[4-(trifluoromethyl)pyrimidin-2-yl]amino}phenyl)pyridin-2-yl]-L-threonine], the figure is < 100 nM.
Consider `COc1cccc(-c2cc(C)cc(Nc3nccc(C(F)(F)F)n3)c2)n1` [Example 4.9], for which the IC50 was 100 to 1000 nM.
As for `Cc1cc(Nc2nccc(C(F)(F)F)n2)cc(-c2ccnc(NCC(C)(C)O)c2)c1` [Example 15.60, 2-methyl-1-{[4-(3-methyl-5-{[4-(trifluoromethyl)pyrimidin-2-yl]amino}phenyl)pyridin-2-yl]amino}propan-2-ol], the figure is 100 to 1000 nM; as for `Cc1cc(Nc2nccc(C(F)(F)F)n2)cc(-c2ccc(N(C)[C@@H](C)C(=O)O)nc2)c1` [Example 7.104, N-methyl-N-[5-(3-methyl-5-{[4-(trifluoromethyl)pyrimidin-2-yl]amino}phenyl)pyridin-2-yl]-L-alanine], < 100 nM; as for `Cc1cc(Nc2nccc(C(F)(F)F)n2)cc(-c2ccc(N[C@@H](Cc3ccccc3)C(=O)O)nc2)c1` [Example 7.97, N-[5-(3-methyl-5-{[4-(trifluoromethyl)pyrimidin-2-yl]amino}phenyl)pyridin-2-yl]-L-phenylalanine], < 100 nM.
As for `Cc1cc(Nc2nccc(C(F)(F)F)n2)cc(-c2ccc(N3CCCC3C(=O)O)nc2)c1` (single isomer, unassigned) [Example 7.122, 1-[5-(3-methyl-5-{[4-(trifluoromethyl)pyrimidin-2-yl]amino}phenyl)pyridin-2-yl]proline], the figure is < 100 nM.
